Test [1] concerns cysteinyl leukotrienes (CysLTC). The experiment in a line: Plasma cysteinyl leukotrienes after peanut challenge (enzyme immunoassay). It is filed as in vivo, C57BL/6 mice. On the procedure: Blood from control and sensitized mice was collected in K2-EDTA containing tubes at the indicated time points following i.p challenge with CPE and plasma was analyzed for (E) histamine and (F) CysLTC levels. Histamine and leukotriene levels were determined in plasma at different time points following challenge using enzyme immunoassay kits (Beckman Coulter Canada, Inc, Mississauga, and Cedarlane Laboratories Ltd, Hornby, Canada, respectively) according to the manufacture's specifications. Plasma was obtained using K2-EDTA containing tubes (BD Biosciences, Mississauga, ON, Canada). Graphs show mean values±SEM from three to five independent experiments; n=8-12 mice per group. * P<0.05 relative to control. The kinetics of mediator production is distinct. […] These findings indicate that oral sensitization with peanut results in a significant increase in the number of peritoneal mast cells and FcεRI surface expression likely contributing to the massive release of vasoactive mediators following challenge with peanut.
(for H1 receptor and H2 receptor, respectively) i.v. 30 minutes prior to CPE challenge. […] Histamine (C) and (G) and leukotriene (D) and (H) levels from each of the experimental groups above were analyzed in plasma 40 min following CPE challenge. […]

The subject of test [2] is peanut-sensitized mice.
The subject of test [3] is peanut-sensitized mice. As to the kind of experiment: Mathematical model grading severity of the anaphylactic response (AU39° C., AU35° C., events under 35° C.). It is filed as in vivo, C57BL/6 mice. The protocol:
In an effort to more comprehensively grade the anaphylactic response, three measures of severitywere utilized: global, moderate and life-threatening severity. To facilitate the assessment of severity, a mathematical model that describes the overall behavior of the anaphylactic response for each experimental group was developed. Using mean experimental data for untreated mice, an equation was derived that represents the pattern in core temperature up to 120 minutes following challenge. The same equation was then fit to the other experimental group (mice treated with PAF-R antagonist) to derive a numerical coefficient that accurately depicts the respective response. (FIG. 3 E). These equations were subsequently used to generate modeled data. Actual and modeled data were validated through linear regression, yielding R^2 values of greater than 0.99 for both untreated and treated groups (FIG. 3 F). Thus, the response for each experimental group can be expressed with a mathematical representation that can be used to assess the overall degree of the anaphylactic response. Global severity was defined as the area of the response under 39° C. (AU39° C.), while life-threatening severity was depicted as the area of the response under 35° C. (AU35° C.; FIG. 3 F). Moderate severity was deemed as the difference between global and life-threatening severity (AU39° C.-AU35° C.; FIG. 3 F). Given that these areas (i.e. AU39° C. and AU35° C.) were calculated using mean temperatures at each time point, they describe the overall trend of the response. […] In other words, the AU35° C. is not representative of those mice that experienced life-threatening anaphylaxis exclusively but rather encompasses the response of the entire population. Therefore, the concept of life-threatening severity was modified to consider only the number of mice whose temperature fell below 35° C. at any time point (expressed as ‘events under 35° C.’). In addition, the duration of life-threatening conditions was determined by calculating the time at which each response was below 35° C. (FIG. 3 F).
The potential adjuvant effect of antihistamines in the treatment of PIA was assessed. Peanut-sensitized mice were treated with a PAF-R antagonist along with H1 and H2 receptor antagonists and monitored them for 120 min following challenge. FIG. 4 illustrates that concomitant treatment with PAF-R antagonist and anti-histamines prevents life-threatening and prolonged peanut-induced anaphylactic reactions. […] One week after the last sensitization, separate groups of mice were treated as follows: (A) appropriate drug vehicle (B) PAF-R antagonist [50 mg/Kg], ABT-491] orally 1 h prior to CPE challenge. (C) histamine receptor antagonists mepyramine [3 mg/kg] and cimetadine [10 mg/Kg] (for H1 receptor and H2 receptor, respectively) i.v. 30 min prior to CPE challenge (D) The last group of mice was administered the treatments described in B and C concurrently. Pooled data from two independent experiments are shown (n=6/experiment). *, P<0.05 relative to time 0. ns, not significant. […] (E) The accuracy of the model was quantified using linear regression. Using the equation from the model, global severity was defined as the area between the response and 39 (area under 39° C. (AU39° C.)) while life-threatening severity was defined as the area of the response under 35° C. (AU35° C.). Since these areas were calculated using mean temperatures at each time point, they describe the overall trend of the response. […]

Another test concerns albumin in the PL fluid. The experiment in a line: Vascular leakage: albumin content in PL fluid after peanut challenge. It is filed as in vivo, C57BL/6 mice. The settings on record: PAF-R antagonist; following peanut challenge. From the text:
During the course of a systemic anaphylactic reaction vasodilatation and hypotension are often associated with excessive vascular permeability and fluid extravasations.

In the case of `C#Cc1cccc2c1c(C(=O)c1ccc(Cn3c(C)nc4cnccc43)c(F)c1)cn2C(=O)N(C)C` [ABT-491], in test [1] (PAF-R antagonist treated, untreated 570.2±237.3, mean±SEM), the “levels of Cysts in plasma following challenge with peanut” value stood at 187.3 ± 96.9 pg/mL. Further, in the test on peanut-sensitized mice [2] (ABT-491 50 mg/Kg orally 1 h prior to challenge, 15% of untreated mice developed convulsions), the “development of seizures (convulsions)” value is recorded as “no seizures were observed”. In addition, the “recovery from the anaphylactic reaction” value in the test with peanut-sensitized mice [2] (ABT-491 50 mg/Kg orally 1 h prior to challenge, monitored 120 min, FIGS. 3 C and D) is “significantly accelerated”. Moreover, the “treated mice that developed either no or mild anaphylactic reactions” value with peanut-sensitized mice [2] (ABT-491 50 mg/Kg orally 1 h prior to challenge, no: score 0, 37.5-40° C., mild: score ≦2, 34.5-37.5° C.) is reported as approximately 50%. In addition, the “mice that reached recovery temperature (37° C.) within 120 min following challenge” value in the test on peanut-sensitized mice [2] (ABT-491 50 mg/Kg orally 1 h prior to challenge, untreated 43%, FIG. 3 C) is reported as 83%. For the same compound, the “mice that dropped their core temperature by more than 4° C.” value with peanut-sensitized mice [2] (ABT-491 50 mg/Kg orally 1 h prior to challenge, untreated 87%) is recorded as 48%. Besides, the “mice that died within 48 h following challenge” value in the test with peanut-sensitized mice [2] (ABT-491 50 mg/Kg orally 1 h prior to challenge, untreated approximately 20%) is listed as “none”. Further, the “mice that experienced severe hypothermia 120 min following challenge” value in the test with peanut-sensitized mice [2] (ABT-491 50 mg/Kg orally 1 h prior to challenge, untreated approximately 30%) stood at 9%. The “decrease in global severity (AU39° C.)” value in the test on peanut-sensitized mice [3] (PAF-R antagonist 50 mg/Kg orally vs. untreated, up to 120 min following challenge, FIG. 3 F) is given as “approximately 50%”. For the same compound, in the test on peanut-sensitized mice [3] (PAF-R antagonist 50 mg/Kg orally, FIG. 3 F), the “less time under life-threatening conditions (below 35° C.) compared to untreated mice” value was “approximately 75%”. In addition, the “number of 'events under 35° C.'” value turned out to be 41 in the test on peanut-sensitized mice [3] (PAF-R antagonist 50 mg/Kg orally, untreated 133, FIG. 3 F) and 16 in the test on peanut-sensitized mice [3] (treatments as, 120 min, untreated 75, FIG. 4 E). Also, the “effect on moderate severity (AU39° C.-AU35° C.)” value in the test on peanut-sensitized mice [3] (treatments as, up to 120 min, FIG. 4 E) is “partial effect”. The “decrease in the content of albumin in the PL fluid of treated mice compared to untreated mice (vascular leakage)” value with albumin in the PL fluid worked out at 57%.
Turning to `CC(c1cc2ccccc2s1)N(O)C(N)=O` (stereo not shown) [Zileuton], the “leukotrienes in plasma from treated mice” value in test [1] (Zileuton 50 mg/Kg oral, 12 h and 1 h prior to challenge, plasma 40 min following CPE challenge, FIG. 2 D) was “nearly undetected”. The “impact on the extent and/or kinetics of peanut-induced anaphylactic reactions” value in the test on peanut-sensitized mice [2] (Zileuton 50 mg/Kg oral gavage twice, 12 h and 1 h prior to i.p. CPE challenge, 40 min, FIGS. 2 A and B) is reported as “did not have an impact”.

Values taken from patent US20110217290A1, “TREATMENT AND/OR PREVENTION OF PEANUT INDUCED ANAPHYLAXIS” (priority 2009, published 2011).
